Data taken from patent US8067603B2 (priority 2003, dated 2011).
Several values for one entry are separate records, joined by “and”; a condition that tells them apart may be missing. Identical values can stand only once.

Assays:
[1] = system: Male Wistar rats; conditions: rat, in vivo
[2] = system: rats; conditions: single i.v. dose 10 minutes before agonist: J-113397 1 mg/kg, naloxone 2 mg/kg

Row | SMILES | effect on food intake versus the vehicle treated group ([1]; ip) | increase in food intake: antagonism by the opiate receptor antagonist naloxone ([1]; ip) | Mean ± S.E.M. food intake 120 min after ligand administration [1] | effect on the nociceptin-induced decrease in blood pressure [2]
1 | CN1CC[C@]23c4c5ccc(O)c4O[C@H]2[C@@H](O)C=C[C@H]3[C@H]1C5 [Morphine, morphine] | dose-dependent increase in food-intake | antagonized |  | 
2 | C=CCN1CC[C@]23c4c5ccc(O)c4O[C@H]2C(=O)CC[C@@]3(O)[C@H]1C5 [naloxone] | no effect on food intake |  | 0.09 ± 0.09 g and 0.05 ± 0.001 g | without effect
